Laboratory results: patent publication US11555036B2, “FGFR4 inhibitor, preparation method therefor and pharmaceutical use thereof” (Abbisko Therapeutics Co., Ltd., priority 2016, dated 2023)

Tests used:
FGFR4 = FGFR4 (Homo sapiens, UniProt P22455); test: FGFR4 Caliper Assay (in vitro biochemical kinase analysis of FGFR4); conditions: read-out: Enzymatic activity FGFR4 IC50
Description: I. In Vitro Biochemical Kinase Analysis of FGFR4
FGFR4 Caliper Assay was used in the present invention to determine the inhibitory activities of the compounds against FGFR4. The detailed experimental procedure was as follows.
2. A reaction system is a mixture solution of 50 mM HEPES, pH 7.5, 1 mM DTT, 0.02% Tween 20, 0.02% BSA, 0.6% DMSO, 10 mM beta glycerol phosphate and 10 μM sodium orthovanadate and 16 mM MgCl2.
3. The reaction system was incubated at 30° C. for 40 minutes.
4. The reaction was terminated by adding a stop solution (100 mM HEPES, pH 7.5, 5% DMSO, 0.1% Caliper coating reagent, 10 mM EDTA and 0.015% Brij35).
5. The culture plate with the terminated kinase reaction was transferred to the Caliper LC 3000 workstation to read the data, the phosphorylated and unphosphorylated peptides were separated by using the Caliper microfluid migration shift technique, and the analyte was transferred by allowing a constant buffer flow through the chip, the migration of the substrate peptide was monitored by the labeled fluorescent signal, and the kinase activity was calculated by using the amount of the phosphate-based peptide formed.
6. Finally, IC50 values were determined by non-linear regression analysis of percent inhibition at different compound concentrations.

[1] = tested on: Huh7 hepatocellular carcinoma cells; test: FGFR4 cell proliferation experiment, Cell Titer Glo (CTG); format: cell-based; conditions: HuH-7 cells, 3 days; for IC50: concentration leading to absolute half growth inhibition; for EC50: concentration leading to half maximal growth inhibition
Description: II. FGFR4 Cell Proliferation Experiment
Cell Titer Glo (CTG) experiment was used in the present invention to evaluate the functional effects of the compounds on cell proliferation. […] Compound-mediated inhibition of cell proliferation/survival was assessed by quantification of cellular ATP levels using CTG reagent (Promega, #G7573). The specific experimental procedure was as follows:
2. 10 μL of medium containing a compound concentration of 10 fold of its final test concentration was added;
3. The dose effect was evaluated by a 5-fold serial dilution of the test compound, starting from 10 μM.
4. After cells incubation for 3 days at 37° C. under 5% CO2, the effect of the inhibitor on cell proliferation was quantified after adding 50 μL of CTG and testing with luminescence.

FGFR4, sequence (P22455 22-802): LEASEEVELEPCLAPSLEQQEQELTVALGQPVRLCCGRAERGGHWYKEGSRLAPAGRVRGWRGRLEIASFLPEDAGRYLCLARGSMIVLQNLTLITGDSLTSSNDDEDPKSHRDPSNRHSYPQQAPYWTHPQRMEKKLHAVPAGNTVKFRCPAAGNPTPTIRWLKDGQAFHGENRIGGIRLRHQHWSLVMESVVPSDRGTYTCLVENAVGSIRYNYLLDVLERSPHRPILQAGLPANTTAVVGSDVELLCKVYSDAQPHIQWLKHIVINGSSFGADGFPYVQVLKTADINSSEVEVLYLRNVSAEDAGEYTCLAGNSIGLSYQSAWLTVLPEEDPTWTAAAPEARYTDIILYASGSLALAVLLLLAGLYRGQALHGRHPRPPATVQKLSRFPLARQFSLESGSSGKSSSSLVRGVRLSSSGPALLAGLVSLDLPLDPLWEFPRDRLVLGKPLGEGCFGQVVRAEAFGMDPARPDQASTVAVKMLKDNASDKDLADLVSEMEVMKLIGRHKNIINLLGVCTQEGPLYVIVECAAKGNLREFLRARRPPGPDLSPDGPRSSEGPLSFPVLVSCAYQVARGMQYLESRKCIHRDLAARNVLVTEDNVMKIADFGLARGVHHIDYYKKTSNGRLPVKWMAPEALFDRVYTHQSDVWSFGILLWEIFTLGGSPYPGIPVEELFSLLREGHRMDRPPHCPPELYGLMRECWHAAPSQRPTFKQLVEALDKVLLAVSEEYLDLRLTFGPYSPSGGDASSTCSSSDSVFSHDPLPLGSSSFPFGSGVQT

Compound: C=CC(=O)N[C@H]1COC[C@H]1Nc1ncc2cc(-c3c(Cl)c(OC)cc(OC)c3Cl)nc(NCCNS(C)(=O)=O)c2n1 [Example 430, N-((3R,4S)-4-((6-(2,6-dichloro-3,5-dimethoxyphenyl)-8-((2-(methyl-sulfonamido)ethyl)a-mino)pyrido[3,4-d]pyri-midin-2-yl)amino)tetrahydrofuran-3-yl)acrylamide]
- IC50 (FGFR4): 19.1 nM
- IC50 ([1]; Homo sapiens, Huh-7, 72 h): 93.5 nM
- EC50 ([1]; Homo sapiens, Huh-7, 72 h): 32 nM

Compound: C=CC(=O)N[C@H]1COC[C@H]1Nc1ncc2cc(-c3c(F)c(OC)cc(OC)c3F)nc(NC)c2n1 [Example 764, N-((3R,4S)-4-((6-(2,6-difluoro-3,5-dimethoxyphenyl)-8-(methylamino)py-rido[3,4-d]pyrimidin-2-yl)amino)tetra-hydrofuran-3-yl)acrylamide]
- IC50 (FGFR4): 7 nM
- IC50 ([1]; Homo sapiens, Huh-7, 72 h): 60.4 nM
- EC50 ([1]; Homo sapiens, Huh-7, 72 h): 49.4 nM

Compound: C=CC(=O)N[C@H]1COC[C@H]1Nc1ncc2cc(-c3c(Cl)c(OC)cc(OC)c3Cl)nc(N3CC4(CCOCC4)C3)c2n1 [Example 675, N-((3R,4S)-4-((6-(2,6-dichloro-3,5-dimethoxyphenyl)-8-(7-oxa-2-azaspiro[3.5]nonan-2-yl)pyrido[3,4-d]pyrimidin-2-yl)amino)tetrahydrofuran-3-yl)acrylamide]
- IC50 (FGFR4): 11 nM
- IC50 ([1]; Homo sapiens, Huh-7, 72 h): 8.7 nM
- EC50 ([1]; Homo sapiens, Huh-7, 72 h): 6.2 nM

Compound: C=CC(=O)N[C@H]1CCOC[C@H]1Nc1ncc2cc(-c3c(F)c(OC)cc(OC)c3F)nc(N3CC(OC)C3)c2n1 [Example 775, N-((3S,4S)-3-((6-(2,6-difluoro-3,5-dimethoxyphenyl)-8-(3-methoxyazetidin-1-yl)pyrido[3,4-d]pyrimidin-2-yl)amino)tetrahydro-2H-pyran-4-yl)acrylamide]
- IC50 (FGFR4): 8.9 nM
- IC50 ([1]; Homo sapiens, Huh-7, 72 h): 27.8 nM
- EC50 ([1]; Homo sapiens, Huh-7, 72 h): 20.8 nM

Compound: C=CC(=O)N[C@H]1COC[C@H]1Nc1ncc2cc(-c3c(Cl)c(OC)cc(OC)c3Cl)nc(N3CCC(OC)C3)c2n1 (stereo partly drawn) [Example 677, N-((3R,4S)-4-((6-(2,6-dichloro-3,5-dimethoxyphenyl)-8-(3-methoxypyrro-lidin-1-yl)pyrido[3,4-d]pyrimidin-2-yl)amino)tetrahydrofuran-3-yl)acryl-amide]
- IC50 (FGFR4): 7.4 nM
- IC50 ([1]; Homo sapiens, Huh-7, 72 h): 5.3 nM
- EC50 ([1]; Homo sapiens, Huh-7, 72 h): 3.7 nM

Compound: C=CC(=O)N[C@H]1COC[C@H]1Nc1ncc2cc(-c3c(Cl)c(OC)cc(OC)c3Cl)nc(NCC3CC3)c2n1 [Example 421, N-((3R,4S)-4-((8-((cyclopropylmethyl)amino)-6-(2,6-dichloro-3,5-dimethoxyphenyl)pyrido[3,4-d]pyrimidin-2-yl)amino)tetrahydrofuran-3-yl)acrylamide]
- IC50 (FGFR4): 12.4 nM
- IC50 ([1]; Homo sapiens, Huh-7, 72 h): 10 nM
- EC50 ([1]; Homo sapiens, Huh-7, 72 h): 5.4 nM

Compound: C=CC(=O)N[C@H]1COC[C@H]1Nc1ncc2cc(-c3c(Cl)c(OC)cc(OC)c3Cl)nc(NCC(F)(F)F)c2n1 [Example 435, N-((3R,4S)-4-((6-(2,6-dichloro-3,5-di-methoxyphenyl)-8-((2,2,2-trifluoroeth-yl)amino)pyrido[3,4-d]pyrimidin-2-yl)amino)tetrahydrofuran-3-yl)acryl-amide]
- IC50 (FGFR4): 67 nM
- IC50 ([1]; Homo sapiens, Huh-7, 72 h): 148 nM
- EC50 ([1]; Homo sapiens, Huh-7, 72 h): 80 nM

Compound: C=CC(=O)N[C@H]1COC[C@H]1Nc1ncc2cc(-c3c(Cl)c(OC)cc(OC)c3Cl)nc(NC[C@H]3CCCO3)c2n1 [Example 438A, N-((3R,4S)-4-((6-(2,6-dichloro-3,5-di-methoxyphenyl)-8-((((R)-tetrahydro-furan-2-yl)methyl)amino)pyrido[3,4-d]pyrimidin-2-yl)amino)tetrahydro-furan-3-yl)acrylamide]
- IC50 (FGFR4): 3.5 nM
- IC50 ([1]; Homo sapiens, Huh-7, 72 h): 17.8 nM
- EC50 ([1]; Homo sapiens, Huh-7, 72 h): 9.9 nM

Compound: C=CC(=O)N[C@H]1COC[C@H]1Nc1ncc2cc(-c3c(Cl)c(OC)cc(OC)c3Cl)nc(C)c2n1 [Example 606, N-((3R,4S)-4-((6-(2,6-dichloro-3,5-di-methoxyphenyl)-8-methylpyrido[3,4-d]pyrimidin-2-yl)amino)tetrahydro-furan-3-yl)acrylamide]
- IC50 (FGFR4): 23.4 nM
- IC50 ([1]; Homo sapiens, Huh-7, 72 h): 41.1 nM
- EC50 ([1]; Homo sapiens, Huh-7, 72 h): 25.7 nM

Compound: C=CC(=O)N[C@H]1COC[C@H]1Nc1ncc2cc(-c3c(Cl)c(OC)cc(OC)c3Cl)nc(NCCc3ccccc3)c2n1 [Example 456, N-((3R,4S)-4-((6-(2,6-dichloro-3,5-di-methoxyphenyl)-8-(phenethylamino)pyrido[3,4-d]pyrimidin-2-yl)amino)tetrahydrofuran-3-yl)acrylamide]
- IC50 (FGFR4): 82.4 nM
- IC50 ([1]; Homo sapiens, Huh-7, 72 h): 299 nM
- EC50 ([1]; Homo sapiens, Huh-7, 72 h): 163 nM

Compound: C=CC(=O)Nc1cn(C)nc1Nc1ncc2cc(-c3c(Cl)c(OC)cc(OC)c3Cl)ncc2n1 [Example 64, N-(3-((6-(2,6-dichloro-3,5-dimethoxyphenyl)pyrido[3,4-d]pyrimidin-2-yl)amino)-1-methyl-1H-pyrazol-4-yl) acrylamide]
- IC50 (FGFR4): 53.3 nM
- IC50 ([1]; Homo sapiens, Huh-7, 72 h): 268 nM
- EC50 ([1]; Homo sapiens, Huh-7, 72 h): 54.2 nM

Compound: C=CC(=O)N[C@H]1COC[C@H]1Nc1ncc2cc(-c3c(Cl)c(OC)cc(OC)c3Cl)nc(OC)c2n1 [Example 423, N-((3R,4S)-4-((6-(2,6-dichloro-3,5-di-methoxyphenyl)-8-methoxypyrido[3,4-d]pyrimidin-2-yl)amino)tetrahydro-furan-3-yl)acrylamide]
- IC50 (FGFR4): 31.7 nM
- IC50 ([1]; Homo sapiens, Huh-7, 72 h): 348 nM
- EC50 ([1]; Homo sapiens, Huh-7, 72 h): 98 nM

Compound: C=CC(=O)Nc1cccc(C)c1Nc1cc2c(=O)n(C)c(-c3c(Cl)c(OC)cc(OC)c3Cl)cc2cn1 [Example 1, N-(2-((7-(2,6-dichloro-3,5-dimethoxyphenyl)-6-methyl-5-oxo-5,6-dihydro-2,6-naphthyridin-3-yl)amino)-3-methylphenyl)acrylamide]
- IC50 (FGFR4): 13.9 nM
- IC50 ([1]; Homo sapiens, Huh-7, 72 h): 2450 nM
- EC50 ([1]; Homo sapiens, Huh-7, 72 h): 1530 nM

Compound: C=CC(=O)N[C@H]1COC[C@H]1Nc1ncc2cc(-c3c(F)c(OC)cc(OC)c3F)nc(NCC)c2n1 [Example 767, N-((3R,4S)-4-((6-(2,6-difluoro-3,5-dimethoxyphenyl)-8-(ethylamino)pyri-do[3,4-d]pyrimidin-2-yl)amino)tetra-hydrofuran-3-yl)acrylamide]
- IC50 (FGFR4): 7 nM
- IC50 ([1]; Homo sapiens, Huh-7, 72 h): 45.1 nM
- EC50 ([1]; Homo sapiens, Huh-7, 72 h): 23.9 nM

Compound: N-((3S,4S)-3-((6-(2,6-dichloro-3,5-di- methoxyphenyl)-8-(methylamino)py- rido[3,4-d]pyrimidin-2-yl)amino)tetra- hydro-2H-pyran-4-yl)acrylamide [Example 510]
- IC50 (FGFR4): 29 nM
- IC50 [1]: 116 nM
- EC50 [1]: 75.2 nM

Compound: C=CC(=O)N[C@H]1COC[C@H]1Nc1ncc2cc(-c3c(Cl)c(OC)cc(OC)c3Cl)nc(NCCOC)c2n1 [Example 422, N-((3R,4S)-4-((6-(2,6-dichloro-3,5-di-methoxyphenyl)-8-((2-methoxyethyl)amino)pyrido[3,4-d]pyrimidin-2-yl)a-mino)tetrahydrofuran-3-yl)acrylamide]
- IC50 (FGFR4): 22.5 nM
- IC50 ([1]; Homo sapiens, Huh-7, 72 h): 238 nM
- EC50 ([1]; Homo sapiens, Huh-7, 72 h): 47 nM

Compound: C=CC(=O)Nc1cccc(C)c1Nc1cc2c(OC)nc(-c3c(Cl)c(OC)cc(OC)c3Cl)cc2cn1 [Example 9, N-(2-((7-(2,6-dichloro-3,5-dimethoxyphenyl)-5-dimethoxy-2,6-naphthyridin-3-yl)amino)-3-methylphenyl)acryl-amide]
- IC50 (FGFR4): 138 nM
- IC50 ([1]; Homo sapiens, Huh-7, 72 h): 1050 nM
- EC50 ([1]; Homo sapiens, Huh-7, 72 h): 89 nM

Compound: C=CC(=O)N[C@H]1COC[C@H]1Nc1ncc2cc(-c3c(Cl)c(OC)cc(OC)c3Cl)nc(NCC3CCCC3)c2n1 [Example 454, N-((3R,4S)-4-((8-((cyclopentylmeth-yl)amino)-6-(2,6-dichloro-3,5-dimeth-oxyphenyl)pyrido[3,4-d]pyrimidin-2-yl)amino)tetrahydrofuran-3-yl)acryl-amide]
- IC50 (FGFR4): 66.9 nM
- IC50 ([1]; Homo sapiens, Huh-7, 72 h): 89.2 nM
- EC50 ([1]; Homo sapiens, Huh-7, 72 h): 40.8 nM

Compound: C=CC(=O)N[C@H]1COC[C@H]1Nc1ncc2cc(-c3c(F)c(OC)cc(OC)c3F)ncc2n1 [Example 120, N-((3R,4S)-4-((6-(2,6-difluoro-3,5-dime-thoxyphenyl)pyrido[3,4-d]pyrimidin-2-yl)amino)tetrahydrofuran-3-yl)acrylamide]
- IC50 (FGFR4): 303 nM
- IC50 ([1]; Homo sapiens, Huh-7, 72 h): 754 nM
- EC50 ([1]; Homo sapiens, Huh-7, 72 h): 156 nM

Compound: C=CC(=O)N[C@H]1COC[C@H]1Nc1ncc2cc(-c3c(Cl)c(OC)cc(OC)c3Cl)nc(NCC(C)(C)C)c2n1 [Example 462, N-((3R,4S)-4-((6-(2,6-dichloro-3,5-di-methoxyphenyl)-8-(neopentylamino)pyrido[3,4-d]pyrimidin-2-yl)amino)tetrahydrofuran-3-yl)acrylamide]
- IC50 (FGFR4): 14.5 nM
- IC50 ([1]; Homo sapiens, Huh-7, 72 h): 38.3 nM
- EC50 ([1]; Homo sapiens, Huh-7, 72 h): 24.6 nM

Compound: C=CC(=O)N[C@H]1CCOC[C@H]1Nc1ncc2cc(-c3c(F)c(OC)cc(OC)c3F)nc(N3CCC(OC)C3)c2n1 (stereo partly drawn) [Example 794, N-((3S,4S)-3-((6-(2,6-difluoro-3,5-dimethoxyphenyl)-8-(3-methoxy-pyrrolidin-1-yl)pyrido[3,4-d]py-rimidin-2-yl)amino)tetrahydro-2H-pyran-4-yl)acrylamide]
- IC50 (FGFR4): 4.8 nM
- IC50 ([1]; Homo sapiens, Huh-7, 72 h): 6.9 nM
- EC50 ([1]; Homo sapiens, Huh-7, 72 h): 5.5 nM
